Results taken from US9732087B2, “Diamino-pyridine, pyrimidine, and pyridazine modulators of the histamine H4 receptor” (JANSSEN PHARMACEUTICA NV, priority 2008, dated 2017).

Molecular target: human H4 receptor (Homo sapiens (Human), UniProt Q9H3N8)
Assay: Binding assay on recombinant human histamine H4 receptor ([3H]histamine competition, SK-N-MC cell membranes)
Conditions: membranes harvested with cell harvester; [3H]histamine 10 nM; average of results; read-out: Cell Harvester Ki
Outline: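 Scintillation counting of filter-bound [3H]histamine after rapid harvesting on 0.5% PEI-treated GF/C filters with ice-cold Tris/EDTA washes. Receptor source: 30,000 g membrane pellets of SK-N-MC cells stably or transiently expressing human H4. Values shown as '>' are the top concentration tested.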

Sequence of human H4 receptor (Q9H3N8 whole entry): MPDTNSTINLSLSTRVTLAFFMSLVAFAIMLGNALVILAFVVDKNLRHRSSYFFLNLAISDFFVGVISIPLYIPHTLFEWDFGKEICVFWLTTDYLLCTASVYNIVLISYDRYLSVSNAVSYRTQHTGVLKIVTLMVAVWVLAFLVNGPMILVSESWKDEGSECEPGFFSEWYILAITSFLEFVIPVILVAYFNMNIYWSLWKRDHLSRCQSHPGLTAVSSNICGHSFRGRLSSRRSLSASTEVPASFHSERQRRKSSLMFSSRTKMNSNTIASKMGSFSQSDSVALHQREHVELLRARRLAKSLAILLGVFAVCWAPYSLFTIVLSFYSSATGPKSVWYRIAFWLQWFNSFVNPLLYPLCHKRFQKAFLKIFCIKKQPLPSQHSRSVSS

| Compound | Ki |
| --- | --- |
| c1cc(N2CCCNCC2)nc(NC2CC3CCC2C3)n1 (stereo not drawn) [Example 195, N-Bicyclo[2.2.1]hept-2-yl-4-(1,4-diazepan-1-yl)pyrimidin-2-amine] | 0.00775 µM |
| CCCCNc1nccc(N2CC[C@H](N)C2)n1 [Example 196, 4-[(3S)-3-Aminopyrrolidin-1-yl]-N-butylpyrimidin-2-amine] | 0.225 µM |
| N[C@@H]1CCN(c2ccnc(NCC3CCCCC3)n2)C1 [Example 197, 4-[(3R)-3-Aminopyrrolidin-1-yl]-N-(cyclohexylmethyl)pyrimidin-2-amine] | 0.0173 µM |
| CC(C)CNc1nccc(N2CC[C@H](N)C2)n1 [Example 198, 4-[(3S)-3-Aminopyrrolidin-1-yl]-N-(2-methylpropyl)pyrimidin-2-amine] | 0.055 µM |
| N[C@H]1CCN(c2ccnc(NCc3ccc(F)cc3)n2)C1 [Example 199, 4-[(3S)-3-Aminopyrrolidin-1-yl]-N-(4-fluorobenzyl)pyrimidin-2-amine] | 2.3 µM |
| CN[C@H]1CCN(c2ccnc(NCc3ccccn3)n2)C1 [Example 200, 4-[(3S)-3-(Methylamino)pyrrolidin-1-yl]-N-(pyridin-2-ylmethyl)pyrimidin-2-amine] | 0.86 µM |
| CN[C@H]1CCN(c2ccnc(N[C@H]3C[C@H]4CC[C@]3(C)C4(C)C)c2)C1 [Example 206, 4-[(3S)-3-(Methylamino)pyrrolidin-1-yl]-N-[(1R,2S,4R)-1,7,7-trimethylbicyclo[2.2.1]hept-2-yl]pyridin-2-amine] | 0.0449 µM |
| CN1CCN(c2ccnc(NC3C4C[C@H]5C[C@@H](C4)C[C@@H]3C5)c2)CC1 (stereo partly drawn) [Example 207, Adamantan-2-yl-[4-(4-methyl-piperazin-1-yl)-pyridin-2-yl]-amine] | 0.191 µM |
| CN[C@@H]1CCN(c2ccnc(NC3C4CC5CC(C4)CC3C5)c2)C1 (stereo partly drawn) [Example 208, Adamantan-2-yl-[4-(3R)-(3-methylamino-pyrrolidin-1-yl)-pyridin-2-yl]-amine] | 0.00086 µM |
| CN[C@@H]1CCN(c2ccnc(N[C@H](C)C3CCCCC3)c2)C1 [Example 209, N-[(1R)-1-Cyclohexylethyl]-4-[(3R)-3-(methylamino)pyrrolidin-1-yl]pyridin-2-amine] | 1.46 µM |
| CN[C@H]1CCN(c2ccnc(NC34CC5CC(CC(C5)C3)C4)c2)C1 [Example 210, Adamantan-1-yl-[4-(3S)-(3-methylamino-pyrrolidin-1-yl)-pyridin-2-yl]-amine] | 0.296 µM |
| CN[C@@H]1CCN(c2ccnc(NCC3CCCCC3)c2)C1 [Example 211, N-(Cyclohexylmethyl)-4-[(3R)-3-(methylamino)pyrrolidin-1-yl]pyridin-2-amine] | 0.00168 µM |
| CN1CCN(c2ccnc(NCC3CCCCC3)c2)CC1 [Example 212, N-(Cyclohexylmethyl)-4-(4-methylpiperazin-1-yl)pyridin-2-amine] | 0.275 µM |
| CN[C@H]1CCN(c2ccnc(N[C@H](C)C3CCCCC3)c2)C1 [Example 213, N-[(1R)-1-Cyclohexylethyl]-4-[(3S)-3-(methylamino)pyrrolidin-1-yl]pyridin-2-amine] | 0.157 µM |
| C[C@@H](Nc1cc(N2CCN(C)CC2)ccn1)C1CCCCC1 [Example 214, N-[(1R)-1-Cyclohexylethyl]-4-(4-methylpiperazin-1-yl)pyridin-2-amine] | 0.416 µM |
| CN[C@H]1CCN(c2ccnc(NC3C4CC5CC(C4)CC3C5)c2)C1 (stereo partly drawn) [Example 215, Adamantan-2-yl-[4-(3S)-(3-methylamino-pyrrolidin-1-yl)-pyridin-2-yl]-amine] | 0.0696 µM |
| CN1CCN(c2ccnc(NCCCO)c2)CC1 [Example 216, 3-{[4-(4-Methylpiperazin-1-yl)pyridin-2-yl]amino}propan-1-ol] | 1.43 µM |
| CN[C@@H]1CCN(c2ccnc(NC34CC5CC(CC(C5)C3)C4)c2)C1 [Example 218, Adamantan-1-yl-[4-(3R)-(3-methylamino-pyrrolidin-1-yl)-pyridin-2-yl]-amine] | 0.00262 µM |
